Results: PubChem BioAssay AID1745844 (Carcinogenic Potency Database (CPDB), 2022)
The source made the active and inactive calls. The rule behind the calls is not given here.

System: rodent lifetime carcinogenesis bioassay, tumor incidence TD50
Assay: chronic cancer bioassays in animals – CPDB, compiled studies (AID 1745844)
Details: in feed

## Cc1ncc([N+](=O)[O-])n1CCO
mouse, strain Swiss, females, site: all sites, lesion: malignant lymphoma, dosed 122 weeks, study length 128 weeks
  TD50: 1300 mg/kg/day
mouse, strain Swiss, females, site: liver, lesion: several types, types named in the paper, dosed 122 weeks, study length 128 weeks
  TD50: 24200 mg/kg/day (inactive)
mouse, strain Swiss, females, site: lung, lesion: several types, types named in the paper, dosed 122 weeks, study length 128 weeks
  TD50: 937 mg/kg/day
mouse, strain Swiss, males, site: liver, lesion: several types, types named in the paper, dosed 116 weeks, study length 124 weeks
  TD50: 20700 mg/kg/day (inactive)
mouse, strain Swiss, males, site: lung, lesion: several types, types named in the paper, dosed 116 weeks, study length 124 weeks
  TD50: 347 mg/kg/day
rat, strain Sas:MRC(WI)BR, females, site: any site (literature study), lesion: several types, types named in the paper, dosed 147 weeks, study length 151 weeks
  TD50: 139 mg/kg/day
rat, strain Sas:MRC(WI)BR, females, site: liver, lesion: hepatocellular carcinoma, dosed 147 weeks, study length 151 weeks
  TD50: 1860 mg/kg/day
rat, strain Sas:MRC(WI)BR, females, site: mammary gland, lesion: fibroadenoma, dosed 147 weeks, study length 151 weeks
  TD50: 431 mg/kg/day
rat, strain Sas:MRC(WI)BR, females, site: mammary gland, lesion: several types, types named in the paper, dosed 147 weeks, study length 151 weeks
  TD50: 446 mg/kg/day
rat, strain Sas:MRC(WI)BR, females, site: pituitary gland, lesion: several types, types named in the paper, dosed 147 weeks, study length 151 weeks
  carcinogen call: negative (inactive)
rat, strain Sas:MRC(WI)BR, females, site: subcutaneous tissue, lesion: several types, types named in the paper, dosed 147 weeks, study length 151 weeks
  TD50: 4050 mg/kg/day
rat, strain Sas:MRC(WI)BR, females, site: uterus, lesion: several types, types named in the paper, dosed 147 weeks, study length 151 weeks
  TD50: 2970 mg/kg/day (inactive)
rat, strain Sas:MRC(WI)BR, males, site: any site (literature study), lesion: several types, types named in the paper, dosed 140 weeks, study length 144 weeks
  TD50: 211 mg/kg/day
rat, strain Sas:MRC(WI)BR, males, site: liver, lesion: hepatocellular carcinoma, dosed 140 weeks, study length 144 weeks
  TD50: 45900 mg/kg/day
rat, strain Sas:MRC(WI)BR, males, site: mammary gland, lesion: fibroadenoma, dosed 140 weeks, study length 144 weeks
  TD50: 2490 mg/kg/day
rat, strain Sas:MRC(WI)BR, males, site: pituitary gland, lesion: several types, types named in the paper, dosed 140 weeks, study length 144 weeks
  TD50: 731 mg/kg/day
rat, strain Sas:MRC(WI)BR, males, site: subcutaneous tissue, lesion: several types, types named in the paper, dosed 140 weeks, study length 144 weeks
  TD50: 2360 mg/kg/day
rat, strain Sas:MRC(WI)BR, males, site: testis, lesion: several types, types named in the paper, dosed 140 weeks, study length 144 weeks
  TD50: 993 mg/kg/day
rat, strain Sprague-Dawley, females, site: any site (literature study), lesion: several types, types named in the paper, dosed 66 weeks, study length 75 weeks
  TD50: 61.1 mg/kg/day (inactive)
rat, strain Sprague-Dawley, females, site: uterus, lesion: adenomyoma, dosed 66 weeks, study length 75 weeks
  TD50: 180 mg/kg/day (inactive)
